ChEMBL document CHEMBL1154618, “Agonist vs antagonist behavior of delta opioid peptides containing novel phenylalanine analogues in place of Tyr(1)” (J Med Chem, 2009)
Activity calls are given as the source filed them. No cut-off for these calls is given here. Non-standard residues stand in square brackets, D forms with d. Residues, ends and D or L forms follow the SMILES beside them. Phe(2,6-Me2,4-CONH2) = Cc1cc(C(N)=O)cc(C)c1C[C@H](N)C(=O)O; Dmt = Cc1cc(O)cc(C)c1C[C@H](N)C(=O)O; Tic = O=C(O)[C@@H]1Cc2ccccc2CN1

Assays:
[1] = molecular target: Delta-type opioid receptor (Mus musculus) (UniProt P32300); experiment: Antagonist activity at delta opioid receptor in mouse vas deferens assessed as inhibition of DPDPE-stimulated muscle contraction; format: functional, tissue-based
Sequence of Delta-type opioid receptor (Mus musculus) (P32300 whole entry): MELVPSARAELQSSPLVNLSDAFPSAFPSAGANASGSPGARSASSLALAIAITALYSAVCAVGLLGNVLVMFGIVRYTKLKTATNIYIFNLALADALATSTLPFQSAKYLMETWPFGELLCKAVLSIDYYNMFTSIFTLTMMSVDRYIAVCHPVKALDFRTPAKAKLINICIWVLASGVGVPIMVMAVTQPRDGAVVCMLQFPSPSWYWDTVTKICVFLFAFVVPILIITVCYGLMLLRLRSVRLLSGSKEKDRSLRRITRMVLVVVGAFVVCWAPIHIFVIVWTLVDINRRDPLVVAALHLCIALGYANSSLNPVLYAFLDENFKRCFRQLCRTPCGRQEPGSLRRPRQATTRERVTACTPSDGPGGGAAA

[2] = molecular target: Delta-type opioid receptor (Rattus norvegicus, UniProt P33533); experiment: Displacement of [3H]DSLET from delta opioid receptor in rat brain membrane; format: cell membranes
Sequence of Delta-type opioid receptor (P33533 whole entry): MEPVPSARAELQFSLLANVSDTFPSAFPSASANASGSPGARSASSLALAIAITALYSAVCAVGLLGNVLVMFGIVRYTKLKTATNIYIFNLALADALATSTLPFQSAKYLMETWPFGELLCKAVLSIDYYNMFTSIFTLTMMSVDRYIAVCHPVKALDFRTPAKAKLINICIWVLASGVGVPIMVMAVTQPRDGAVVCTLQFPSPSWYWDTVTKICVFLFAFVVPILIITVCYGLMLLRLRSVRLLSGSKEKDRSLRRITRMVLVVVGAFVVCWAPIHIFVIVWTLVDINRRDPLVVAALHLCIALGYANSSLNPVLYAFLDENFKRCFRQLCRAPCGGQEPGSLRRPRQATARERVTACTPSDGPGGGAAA

Mu-type opioid receptor [3] = molecular target: Mu-type opioid receptor (Rattus norvegicus, UniProt P33535); experiment: Displacement of [3H]DAMGO from mu opioid receptor in rat brain membrane; format: cell membranes
Sequence of Mu-type opioid receptor (Rattus norvegicus, UniProt P33535) (P33535 whole entry): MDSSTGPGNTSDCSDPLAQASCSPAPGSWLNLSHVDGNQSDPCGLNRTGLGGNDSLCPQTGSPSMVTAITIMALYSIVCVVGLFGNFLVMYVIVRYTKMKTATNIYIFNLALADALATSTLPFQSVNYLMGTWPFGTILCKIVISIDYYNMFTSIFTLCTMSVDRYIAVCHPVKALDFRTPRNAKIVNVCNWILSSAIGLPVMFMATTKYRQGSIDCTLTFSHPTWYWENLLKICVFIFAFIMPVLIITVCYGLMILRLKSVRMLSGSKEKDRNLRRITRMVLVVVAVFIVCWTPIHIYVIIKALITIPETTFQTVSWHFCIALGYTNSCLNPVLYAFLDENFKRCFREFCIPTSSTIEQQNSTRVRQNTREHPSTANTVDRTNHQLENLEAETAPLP

[4] = molecular target: Mu-type opioid receptor (Cavia porcellus) (UniProt P97266); experiment: Antagonist activity at mu opioid receptor in guinea pig ileum assessed as inhibition of […]; format: functional, tissue-based
Sequence of Mu-type opioid receptor (Cavia porcellus) (P97266 whole entry): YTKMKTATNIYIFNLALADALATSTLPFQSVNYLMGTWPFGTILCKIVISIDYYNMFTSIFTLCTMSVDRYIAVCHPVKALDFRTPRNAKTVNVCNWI

[5] = molecular target: Kappa-type opioid receptor (Cavia porcellus, UniProt P41144); experiment: Displacement of [3H]U69-593 from kappa opioid receptor in guinea pig brain membrane; format: cell membranes
Sequence of Kappa-type opioid receptor (P41144 whole entry): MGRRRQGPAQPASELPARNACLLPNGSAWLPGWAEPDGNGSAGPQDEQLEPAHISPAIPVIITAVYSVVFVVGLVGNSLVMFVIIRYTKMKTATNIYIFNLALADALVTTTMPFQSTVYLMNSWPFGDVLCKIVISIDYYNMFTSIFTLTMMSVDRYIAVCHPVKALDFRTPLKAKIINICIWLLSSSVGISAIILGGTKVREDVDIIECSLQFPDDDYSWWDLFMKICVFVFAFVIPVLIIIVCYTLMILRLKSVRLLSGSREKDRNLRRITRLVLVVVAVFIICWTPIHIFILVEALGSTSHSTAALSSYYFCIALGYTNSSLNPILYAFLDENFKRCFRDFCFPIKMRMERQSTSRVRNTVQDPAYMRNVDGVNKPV

Mu-type opioid receptor [6] = molecular target: Mu-type opioid receptor (Cavia porcellus, UniProt P97266); experiment: Agonist activity at mu opioid receptor in guinea pig ileum assessed as effect on muscle contraction; format: functional, tissue-based
Sequence of Mu-type opioid receptor (Cavia porcellus, UniProt P97266) (P97266 whole entry): as the sequence (P97266 whole entry) above

Work on `Cc1cc(C(=O)NCCc2ccc(-c3ccccc3)cc2)cc(C)c1C[C@H](N)C(=O)N1Cc2ccccc2C[C@H]1C(=O)O` yielded a Ke [1] of 1.76 nM.

Compound `N[C@@H](Cc1ccc(C(=O)NCCc2ccc(-c3ccccc3)cc2)cc1)C(=O)N1Cc2ccccc2C[C@H]1C(=O)N[C@@H](Cc1ccccc1)C(=O)O` has a Ke [1] of 18.7 nM.

Compound `N[C@@H](Cc1ccc(C(=O)NCCc2ccc(-c3ccccc3)cc2)cc1)C(=O)N1Cc2ccccc2C[C@H]1C(=O)O` has a Ke [1] of 17.8 nM.

For `N[C@@H](Cc1ccc(O)cc1)C(=O)N1Cc2ccccc2C[C@H]1C(=O)O` (H-Tyr-[Tic]-OH), the Ki [2] was 242 nM, the Ki (Mu-type opioid receptor [3]) was > 1000 nM and the Ke [4] was “inactive”. For the same compound, the Ki [5] was > 10000 nM, the Ke [1] was 263 nM and the IC50 (Mu-type opioid receptor [6]) was “Not Active”.

For `N[C@@H](Cc1ccc(O)cc1)C(=O)N1Cc2ccccc2C[C@H]1C(=O)N[C@@H](Cc1ccccc1)C(=O)N[C@@H](Cc1ccccc1)C(=O)O` (H-Y[Tic]FF-OH), the Ki [5] was > 1000 nM and the IC50 (Mu-type opioid receptor [6]; read-out: IC50) was > 10000 nM.

With `Cc1cc(O)cc(C)c1C[C@H](N)C(=O)N1Cc2ccccc2C[C@H]1C(=O)O` (H-[Dmt]-[Tic]-OH) the Ki (Mu-type opioid receptor [3]) was 1360 nM, the Ke [4] was “inactive” and the Ki [5] was > 1000 nM. The IC50 (Mu-type opioid receptor [6]) was “Not Active”.

With `Cc1cc(O)cc(C)c1C[C@H](N)C(=O)N1Cc2ccccc2C[C@H]1C(=O)N[C@@H](Cc1ccccc1)C(=O)N[C@@H](Cc1ccccc1)C(=O)O` (H-[Dmt][Tic]FF-OH) the Ki [5] was > 1000 nM, the Ke [1] was 0.196 nM and the IC50 (Mu-type opioid receptor [6]; read-out: IC50) was 769 nM.

`Cc1cc(C(N)=O)cc(C)c1C[C@H](N)C(=O)N1Cc2ccccc2C[C@H]1C(=O)N[C@@H](Cc1ccccc1)C(=O)N[C@@H](Cc1ccccc1)C(=O)O` (H-[Phe(2,6-Me2,4-CONH2)][Tic]FF-OH) was tested, and the Ki [2] was 0.501 nM, the Ki [5] was > 1000 nM and the Ke [1] was 0.627 nM.
